Legend:
[1] = biological target: T1, cytoplasmic domain of the human CSF-1R (Homo sapiens, UniProt P07333); test: In vitro kinase assay for CSF-1R (AlphaScreen); assay type: biochemical; details: tested at about 1 μM
T1 construct: Recombinant protein corresponding to the cytoplasmic domain of the human CSF-1R; purchased Invitrogen Corporation, Carlsbad, Calif; U.S.A. PV3249
T1 sequence (P07333 539-972 limits assumed): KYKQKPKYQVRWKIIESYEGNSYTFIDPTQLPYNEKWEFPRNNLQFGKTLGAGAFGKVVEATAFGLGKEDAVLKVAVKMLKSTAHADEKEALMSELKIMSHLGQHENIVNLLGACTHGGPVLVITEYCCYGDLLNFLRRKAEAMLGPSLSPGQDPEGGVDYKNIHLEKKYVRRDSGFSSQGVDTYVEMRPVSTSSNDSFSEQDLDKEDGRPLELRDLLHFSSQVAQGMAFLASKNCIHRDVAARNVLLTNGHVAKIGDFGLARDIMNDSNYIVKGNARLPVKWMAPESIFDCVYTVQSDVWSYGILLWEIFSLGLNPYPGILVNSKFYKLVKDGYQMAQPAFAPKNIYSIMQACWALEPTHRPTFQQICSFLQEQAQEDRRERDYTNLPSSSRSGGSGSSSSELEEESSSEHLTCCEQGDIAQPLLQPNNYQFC
Method: The kinase activity of various protein tyrosine kinases can be measured by providing ATP and a suitable peptide or protein tyrosine-containing substrate, and assaying the transfer of phosphate moiety to the tyrosine residue. Recombinant protein corresponding to the cytoplasmic domain of the human CSF-1R was purchased from Invitrogen Corporation, Carlsbad, Calif. U.S.A. (#PV3249). For each assay, test compounds were serially diluted, starting at 25 μM with 3 fold dilutions, in DMSO in 384 well plates then mixed with an appropriate kinase reaction buffer consisting of 50 mM Hepes, 5 mM MgCl2, 10 mM MnCl2, 0.1% BSA, pH 7.5, 1.0 mM dithiothreitol, 0.01% Tween 80 plus […]. Kinase protein and an appropriate biotinylated peptide substrate at 50 nM were added to give a final volume of 20 μL, reactions were incubated for 2 hours at room temperature and stopped by the addition of 10 μL of 45 mM EDTA, 50 mM Hepes pH 7.5. Added to the stopped reaction mix was 30 μL of PT66 Alphascreen beads (Perkin Elmer, Boston, Mass., U.S.A.). The reaction was incubated overnight and read on the Envision (Perkin Elmer). Phosphorylated peptide product was measured with the AlphaScreen system (Perkin Elmer) using acceptor beads coated with anti-phosphotyrosine antibody PT66 and donor beads coated with streptavidin that emit a fluorescent signal at the 520-620 nm emission wave length if in close proximity. The concentration of each compound for 50% inhibition (IC50) was calculated by non-linear regression using XL Fit data analysis software.
CSF-1R kinase was assayed in 50 mM Hepes pH 7.0, 5 mM MgCl2, 10 mM MnCl2, 1 mM DTT, 1 mg/mL BSA, 1.0 μM ATP, and 0.05 μM biotin-GGGGRPRAATF-NH2 (SEQ ID NO:2) peptide substrate. CSF-1R kinase was added at final concentration of 4 nM.

[2] = biological target: T2, cKIT (Homo sapiens, UniProt P10721); test: Inhibition of cKIT kinase in an in vitro biochemical assay (alphascreen); details: tested at about 1 μM
T2 construct: The kinase domain of cKIT was assayed in 50 mM Hepes; purchased Upstate 14-559
Method: (§1) The IC50 values for the inhibition of RTKs were determined in the alphascreen format measuring the inhibition by compound of phosphate transfer to a substrate by the respective enzyme. Briefly, the respective RTK domain purchased as human recombinant protein (cKIT Upstate #14-559, PDGFRb Invitrogen #P3082) were incubated with serial dilutions of compound in the presence of substrate and ATP concentrations within 3 times the Km of the enzyme.
(§2) The kinase domain of cKIT was assayed in 50 mM Hepes, pH=7.5, 5 mM MgCl2, 10 mM MnCl2, 1 mM DTT, 0.1% BSA with 0.06 uM biotinylated peptide substrate (GGLFDDPSYVNVQNL-NH2) and 15 μM ATP (ATP KM apparent =15 μM). The kinase domain of PDGFRβ was assayed in 50 mM Hepes, pH=7.5, 20 mM MgCl2, 1 mM DTT, 0.1% BSA with 0.1 μM biotinylated peptide substrate (GGLFDDPSYVNVQNL-NH2) and 10 μM ATP (ATP KM apparent=25 μM). Reactions were incubated at room temperature for 3 to 4 hr and stopped with buffer (20 mM EDTA, 0.01% Tween-20 for both PDGFRβ and cKIT). Alphascreen PY20 beads were added to the stopped cKIT reactions and PY20 Ab/Protein A Alphascreen beads were added to the PDGFRβ stopped reactions. Both reactions were incubated overnight and read on the Alphascreen reader. The concentration of compound for 50% inhibition (IC50) was calculated employing non-linear regression using XL-Fit data analysis software. As a control compound, staurosporine is run in every assay and a Z′>0.5 is required to validate results.

[3] = biological target: T3, PDGFRb (Homo sapiens, UniProt P09619); test: Inhibition of PDGFRb kinase in an in vitro biochemical assay (alphascreen); details: tested at about 1 μM; read-out: PDGFR % inhibition at 1 μM
T3 construct: The kinase domain of PDGFRβ was assayed in 50 mM Hepes; purchased Invitrogen P3082
Method: as §1, §2

T3 sequence (P09619 600-962 limits assumed): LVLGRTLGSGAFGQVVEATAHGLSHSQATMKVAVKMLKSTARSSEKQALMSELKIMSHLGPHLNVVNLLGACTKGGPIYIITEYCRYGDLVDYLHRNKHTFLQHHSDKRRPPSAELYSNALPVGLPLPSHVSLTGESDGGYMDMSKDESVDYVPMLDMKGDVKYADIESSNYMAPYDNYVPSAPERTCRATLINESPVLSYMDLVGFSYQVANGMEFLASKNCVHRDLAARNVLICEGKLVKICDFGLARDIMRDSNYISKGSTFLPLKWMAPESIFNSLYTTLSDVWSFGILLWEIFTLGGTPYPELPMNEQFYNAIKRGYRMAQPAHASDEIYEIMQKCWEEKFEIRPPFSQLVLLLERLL
T2 sequence (P10721 589-937 limits assumed): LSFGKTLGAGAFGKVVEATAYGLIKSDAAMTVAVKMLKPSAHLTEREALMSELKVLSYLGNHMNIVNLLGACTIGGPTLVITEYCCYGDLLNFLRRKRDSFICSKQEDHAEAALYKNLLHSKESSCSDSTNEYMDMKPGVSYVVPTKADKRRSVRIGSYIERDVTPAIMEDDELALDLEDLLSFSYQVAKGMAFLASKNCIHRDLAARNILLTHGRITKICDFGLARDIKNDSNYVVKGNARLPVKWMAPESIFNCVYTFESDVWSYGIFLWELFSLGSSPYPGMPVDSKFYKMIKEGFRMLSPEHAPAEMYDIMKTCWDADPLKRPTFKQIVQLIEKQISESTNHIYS

Row | inhibition at 1 µM [1] | inhibition at 1 µM [2] | inhibition at 1 µM [3] | SMILES
1 | 99% | 19% | 15% | CC[C@H](C)[C@@H](CO)Nc1ncc2cc(Oc3ccnc(C(=O)NC)c3)ccc2n1 [Cmpd 14, 4-(2-((2S,3S)-1-hydroxy-3-methylpentan-2-ylamino)quinazolin-6-yloxy)-N-methylpicolinamide]
2 | 99% | 39% | 71% | CNC(=O)c1cc(Oc2ccc3sc(N[C@@H]4CCCC[C@H]4O)nc3c2)ccn1 [Example 81, 4-(2-((1R,2R)-2-hydroxycyclohexylamino)benzo[d]thiazol-5-yloxy)-N-methylpicolinamide]
3 | 100% | 13% | 34% | CNC(=O)c1cc(Sc2ccc3nc(NCC4CCCCC4)sc3c2)ccn1 [Example 78, 4-(2-(cyclohexylmethylamino)benzo [d]thiazol-6-ylthio)-N-methylpicolinamide]
4 | 67% | 8% | < 1% | CN(C)C(=O)c1cc(Oc2ccc3nc(Nc4ccccc4N4CCOCC4)ncc3c2)ccn1 [Example 31, N,N-dimethyl-4-(2-(2-morpholinophenylamino)quinazolin-6-yloxy)picolinamide]
5 | 100% | 13% | < 1% | CNC(=O)c1cc(Oc2ccc3nc(Nc4cccc5c4OCCO5)ncc3c2)ccn1 [Example 40, 4-(2-(2,3-dihydrobenzo[b][1,4]dioxin-5-ylamino)quinazolin-6-yloxy)-N-methylpicolinamide]
6 | 100% | 100% | 91% | Cn1cc(-c2cc(Oc3ccc4nc(NCC5CCCCC5)ncc4c3)ccn2)cn1 [Cmpd 21, N-(cyclohexylmethyl)-6-(2-(1-methyl-1H-pyrazol-4-yl)pyridin-4-yloxy)quinazolin-2-amine]
7 | 99% | 92% | 46% | CNC(=O)c1cc(Oc2ccc3nc(N[C@H](C)c4ccccc4)ncc3c2)ccn1 [Example 38, (R)-N-methyl-4-(2-(1-phenylethylamino)quinazolin-6-yloxy)picolinamide]
8 | 98% | 10% | 2% | CNC(=O)c1cc(Oc2ccc3nc(Nc4cccc5c4OC(F)(F)O5)ncc3c2)ccn1 [Example 68, 4-(2-(2,2-difluorobenzo[d][1,3]dioxol-4-ylamino)quinazolin-6-yloxy)-N-methylpicolinamide]
9 | 100% | 100% | 100% | CNC(=O)c1cc(Oc2ccc3nc(N[C@H](C)C4CCCCC4)[nH]c3c2)ccn1 [Example 83, (R)-4-(2-(1-cyclohexylethylamino)-1H-benzo[d]imidazol-6-yloxy)-N-methylpicolinamide]
10 | 93% | 12% | 2% | CNC(=O)c1cc(Oc2ccc3nc(NC4CCN(C(=O)OC(C)(C)C)CC4)ncc3c2)ccn1 [Example 57, tert-butyl 4-(6-(2-(methylcarbamoyl)pyridin-4-yloxy)quinazolin-2-ylamino)piperidine-1-carboxylate]
11 | 99% | 7% | < 1% | CC(=O)Nc1cc(Oc2ccc3nc(Nc4ccccc4N4CCOCC4)ncc3c2)ccn1 [Example 32, N-(4-(2-(2-morpholinophenylamino)quinazolin-6-yloxy)pyridin-2-yl)acetamide]
12 | 96% | 13% | < 1% | CNC(=O)c1cc(Oc2ccc3nc(NC4CCCC4)ncc3c2)ccn1 [Example 66, 4-(2-(cyclopentylamino)quinazolin-6-yloxy)-N-methylpicolinamide]
13 | 98% | 18% | 15% | CNC(=O)c1cc(Oc2ccc3nc(NC(C)c4nccs4)ncc3c2)ccn1 (stereo not drawn) [Example 48, N-methyl-4-(2-(1-(thiazol-2-yl)ethylamino)quinazolin-6-yloxy)picolinamide]
14 | 99% | 17% | 5% | CNC(=O)c1cc(Oc2ccc3nc(Nc4ccccc4OCCOC)ncc3c2)ccn1 [Example 69, 4-(2-(2-(2-methoxyethoxy)phenylamino)quinazolin-6-yloxy)-N-methylpicolinamide]
15 | 52% | 8% | < 1% | c1ccc(N2CCOCC2)c(Nc2ncc3cc(Oc4ccncc4)ccc3n2)c1 [Cmpd 28, N-(2-morpholinophenyl)-6-(pyridin-4-yloxy)quinazolin-2-amine]
16 | 74% | 10% | 16% | c1cc(Cc2ccc3nc(NCC4CCCCC4)sc3c2)ccn1 [Example 77, N-(cyclohexylmethyl)-6-(pyridin-4-ylmethyl)benzo[d]thiazol-2-amine]
17 | 98% | 13% | 43% | CNC(=O)c1cc(Oc2ccc3nc(NC(=O)c4ccccc4)ncc3c2)ccn1 [Example 72, 4-(2-benzamidoquinazolin-6-yloxy)-N-methylpicolinamide]
18 | 99% | 42% | 6% | CNC(=O)c1cc(Oc2ccc3nc(OCC4CCCCC4)ncc3c2)ccn1 [Example 55, 4-(2-(cyclohexylmethoxy)quinazolin-6-yloxy)-N-methylpicolinamide]
19 | 99% | 10% | 52% | CNC(=O)c1cc(Oc2ccc3nc(NCC4CCCCC4)ncc3c2)ccn1 [Example 39, 4-(2-(cyclohexylmethylamino)quinazolin-6-yloxy)-N-methylpicolinamide]
20 | 100% | 39% | 39% | CNC(=O)c1cc(Oc2ccc3nc(N[C@H]4CCCC[C@@H]4O)ncc3c2)ccn1 [Example 12]
21 | 90% | 9% | 1% | Nc1cc(Oc2ccc3nc(Nc4ccccc4N4CCOCC4)ncc3c2)ccn1 [Example 29, 6-(2-aminopyridin-4-yloxy)-N-(2-morpholinophenyl)quinazolin-2-amine]
22 | 100% | 27% | 17% | CNC(=O)c1cc(Oc2ccc3nc(Nc4ccccc4OC(C)C)ncc3c2)ccn1 [Example 46, 4-(2-(2-isopropoxyphenylamino)quinazolin-6-yloxy)-N-methylpicolinamide]
23 | 99% | 16% | 7% | CNC(=O)c1cc(Oc2ccc3nc(N[C@@H](C)c4ccccc4)ncc3c2)ccn1 [Example 64, (S)-N-methyl-4-(2-(1-phenylethylamino)quinazolin-6-yloxy)picolinamide]
